Laboratory results published in the supplement of paper PMC10307832.

What was measured:
Test in all cases: relative viability (nuclei count vs DMSO), 5 days (fraction); higher = more cells survive
Dovitinib = compound: CN1CCN(c2ccc3nc(-c4c(N)c5c(F)cccc5[nH]c4=O)[nH]c3c2)CC1 [Dovitinib]
Method in brief: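 For viability, nuclei in each treated well were divided by nuclei in vehicle wells and the median across plates was taken. Lung cancer cell lines in 1536-well plates were pinned with five library-drug doses (not always all listed) spaced by √10, cultured 5 days without medium change, and imaged at 4× after Hoechst staining, with plates passing only at control CV below 25% and at least one doubling.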

Dovitinib + Tozasertib = compound: CN1CCN(c2ccc3nc(-c4c(N)c5c(F)cccc5[nH]c4=O)[nH]c3c2)CC1 [Dovitinib] + Cc1cc(Nc2cc(N3CCN(C)CC3)nc(Sc3ccc(NC(=O)C4CC4)cc3)n2)n[nH]1 [Tozasertib] (partner 0.1 µM)
Method in brief: (§1)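 Lung cancer cell lines in 1536-well plates got either a single drug or a fixed anchor-drug dose together with five library-drug doses (not always all listed) in √10 steps, by pin tool, on the day after seeding. Nuclei were counted after 5 days, and relative viability is the treated-to-vehicle ratio of nuclei counts. Values are medians of duplicate plates.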

Dovitinib + Trametinib = compound: CN1CCN(c2ccc3nc(-c4c(N)c5c(F)cccc5[nH]c4=O)[nH]c3c2)CC1 [Dovitinib] + CC(=O)Nc1cccc(-n2c(=O)n(C3CC3)c(=O)c3c(Nc4ccc(I)cc4F)n(C)c(=O)c(C)c32)c1 [Trametinib] (partner 0.02 µM)
Method in brief: as §1

Dovitinib + AZD7762 = compound: CN1CCN(c2ccc3nc(-c4c(N)c5c(F)cccc5[nH]c4=O)[nH]c3c2)CC1 [Dovitinib] + NC(=O)Nc1cc(-c2cccc(F)c2)sc1C(=O)N[C@H]1CCCNC1 [AZD7762] (partner 0.2 µM)
Method in brief: as §1

Row | Cell Line | relative viability (Dovitinib; 0.02 µM) | relative viability (Dovitinib; 0.06325 µM) | relative viability (Dovitinib; 0.2 µM) | relative viability (Dovitinib; 0.6325 µM) | relative viability (Dovitinib; 2 µM) | relative viability (Dovitinib + Tozasertib; first compound 0.02 µM) | relative viability (Dovitinib + Tozasertib; first compound 0.06325 µM) | relative viability (Dovitinib + Tozasertib; first compound 0.2 µM) | relative viability (Dovitinib + Tozasertib; first compound 0.6325 µM) | relative viability (Dovitinib + Tozasertib; first compound 2 µM) | relative viability (Dovitinib + Trametinib; first compound 0.02 µM) | relative viability (Dovitinib + Trametinib; first compound 0.06325 µM) | relative viability (Dovitinib + Trametinib; first compound 0.2 µM) | relative viability (Dovitinib + Trametinib; first compound 0.6325 µM) | relative viability (Dovitinib + Trametinib; first compound 2 µM) | relative viability (Dovitinib + AZD7762; first compound 0.02 µM) | relative viability (Dovitinib + AZD7762; first compound 0.06325 µM) | relative viability (Dovitinib + AZD7762; first compound 0.2 µM) | relative viability (Dovitinib + AZD7762; first compound 0.6325 µM) | relative viability (Dovitinib + AZD7762; first compound 2 µM)
1 | H3255 | 0.955 | 1.02 | 0.997 | 1.01 | 1.06 | 0.741 | 0.617 | 0.766 | 0.638 | 0.629 | 0.699 | 0.578 | 0.746 | 0.614 | 0.566 | 0.966 | 0.907 | 1 | 0.89 | 0.809
2 | EPLC-272H | 0.942 | 0.955 | 0.976 | 0.913 | 0.928 | 0.343 | 0.267 | 0.263 | 0.343 | 0.32 | 0.306 | 0.269 | 0.298 | 0.269 | 0.303 | 0.281 | 0.218 | 0.197 | 0.218 | 0.239
3 | PC-3 [JPC-3] | 1.1 | 0.962 | 1.04 | 1.07 | 1.08 | 0.838 | 0.884 | 0.892 | 0.889 | 0.83 | 0.767 | 0.675 | 0.731 | 0.738 | 0.715 | 0.84 | 0.855 | 0.921 | 0.866 | 0.827
4 | NCI-H1793 | 1.07 | 0.977 | 1.02 | 1.09 | 1.01 | 0.32 | 0.399 | 0.362 | 0.266 | 0.343 | 0.458 | 0.36 | 0.388 | 0.445 | 0.445 | 0.453 | 0.316 | 0.505 | 0.306 | 0.53
5 | EKVX | 1.01 | 0.983 | 1.05 | 1.04 | 1.01 | 0.431 | 0.367 | 0.372 | 0.431 | 0.38 | 0.395 | 0.32 | 0.332 | 0.351 | 0.327 | 0.569 | 0.775 | 0.694 | 0.755 | 0.684
6 | ChaGo-K-1 | 0.961 | 1.06 | 0.97 | 1.02 | 0.995 | 0.233 | 0.215 | 0.241 | 0.227 | 0.208 | 0.868 | 0.875 | 0.936 | 0.885 | 0.778 | 0.901 | 0.891 | 0.892 | 0.9 | 0.857
7 | NCI-H23 | 1.01 | 1.03 | 1.07 | 1.02 | 0.952 | 0.293 | 0.475 | 0.581 | 0.354 | 0.358 | 0.391 | 0.446 | 0.376 | 0.4 | 0.378 | 0.287 | 0.233 | 0.23 | 0.275 | 0.377
8 | EMC-BAC-2 | 1.06 | 0.952 | 0.994 | 1.01 | 1.02 | 0.294 | 0.299 | 0.287 | 0.273 | 0.3 | 1.2 | 0.811 | 0.986 | 0.873 | 0.945 | 1.21 | 1.06 | 1.1 | 1.08 | 1.16
9 | LOU-NH91 | 1.02 | 0.945 | 0.939 | 1.07 | 0.984 | 0.708 | 0.659 | 0.611 | 0.678 | 0.776 | 0.81 | 0.784 | 0.798 | 0.82 | 0.815 | 0.783 | 0.736 | 0.707 | 0.778 | 0.783
10 | LU99A | 0.911 | 0.944 | 0.971 | 0.97 | 1.04 | 0.222 | 0.226 | 0.272 | 0.239 | 0.251 | 0.534 | 0.505 | 0.541 | 0.481 | 0.557 | 0.294 | 0.469 | 0.358 | 0.277 | 0.387
11 | NCI-H1395 | 0.99 | 0.849 | 0.959 | 0.827 | 1.15 | 0.721 | 0.75 | 0.81 | 0.765 | 0.815 | 1.04 | 0.984 | 1.07 | 1.02 | 1.06 | 0.425 | 0.366 | 0.435 | 0.374 | 0.398
12 | NCI-H460 | 0.982 | 1.02 | 0.993 | 0.985 | 0.964 | 0.495 | 0.472 | 0.421 | 0.418 | 0.461 | 0.161 | 0.146 | 0.206 | 0.224 | 0.128 | 0.611 | 0.662 | 0.54 | 0.61 | 0.556
13 | 201T | 0.895 | 0.954 | 0.991 | 1.02 | 0.989 | 0.917 | 0.967 | 0.975 | 0.946 | 0.873 | 0.706 | 0.701 | 0.699 | 0.748 | 0.674 | 0.615 | 0.814 | 0.598 | 0.606 | 0.562
14 | NCI-H1944 | 0.94 | 0.94 | 1.08 | 1.02 | 1.01 | 0.235 | 0.258 | 0.225 | 0.272 | 0.255 | 0.391 | 0.395 | 0.409 | 0.395 | 0.36 | 0.564 | 0.788 | 0.531 | 0.523 | 0.475
15 | NCI-H2405 | 0.96 | 0.969 | 1.06 | 1.03 | 1.16 | 0.732 | 0.722 | 0.782 | 0.705 | 0.883 | 0.757 | 0.56 | 0.692 | 0.597 | 0.738 | 0.693 | 0.781 | 0.736 | 0.696 | 0.78
16 | NCI-H1703 | 1.01 | 1.08 | 0.882 | 0.637 | 0.541 |  |  |  |  |  |  |  |  |  |  | 0.132 | 0.0996 | 0.125 | 0.114 | 0.146
